From PubChem BioAssay (NCI)
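All cell lines were grown in 96-well plates and treated with compound for 48 hours. Abbreviation: GI50, concentration required for 50% inhibition of growth. TGI marks complete inhibition of growth.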

How the values were obtained:
Test in all cases: DTP human tumour cell line panel, 48 h
OVCAR-8 ovarian = test system: OVCAR-8 ovarian
MALME-3M melanoma = test system: MALME-3M melanoma
HT29 colon = test system: HT29 colon
NCI-H522 lung = test system: NCI-H522 lung
ACHN renal = test system: ACHN renal
M14 melanoma = test system: M14 melanoma
HCT-116 colon = test system: HCT-116 colon
RXF 393 renal = test system: RXF 393 renal
RPMI-8226 leukemia = test system: RPMI-8226 leukemia

CN(C(=O)C12C3C4C1C1C2C3C41C(=O)N(C)C(C)(C)C)C(C)(C)C (stereo not given)
TGI (OVCAR-8 ovarian): > 50 µM
TGI (MALME-3M melanoma): > 50 µM
TGI (HT29 colon): > 50 µM
TGI (NCI-H522 lung): > 50 µM
TGI (ACHN renal): > 50 µM
TGI (M14 melanoma): > 50 µM
TGI (HCT-116 colon): > 50 µM

CC1(C)C(=O)CCC(=O)C(C)(C)C2=CC=C(O2)C(C)(C)C(=O)CCC(=O)C(C)(C)C2=CC=C1O2
TGI (OVCAR-8 ovarian): > 100 µM
TGI (MALME-3M melanoma): > 100 µM
TGI (HT29 colon): > 100 µM
TGI (NCI-H522 lung): > 100 µM
TGI (ACHN renal): > 100 µM
TGI (RXF 393 renal): > 100 µM
TGI (HCT-116 colon): > 100 µM

CC(C)(C)C1CCP(=O)(c2ccccc2)CC1 (stereo not given)
TGI (OVCAR-8 ovarian): > 100 µM
TGI (MALME-3M melanoma): > 100 µM
TGI (RPMI-8226 leukemia): > 100 µM
TGI (HT29 colon): > 100 µM
TGI (NCI-H522 lung): > 100 µM
TGI (ACHN renal): > 100 µM
TGI (RXF 393 renal): > 100 µM
TGI (M14 melanoma): > 100 µM
TGI (HCT-116 colon): > 100 µM

COc1cc(-c2ccccc2)c(OC)cc1CCl
TGI (OVCAR-8 ovarian): > 100 µM
TGI (MALME-3M melanoma): > 100 µM
TGI (RPMI-8226 leukemia): > 100 µM
TGI (HT29 colon): > 100 µM
TGI (NCI-H522 lung): > 100 µM
TGI (ACHN renal): > 100 µM
TGI (RXF 393 renal): > 100 µM
TGI (M14 melanoma): > 100 µM
TGI (HCT-116 colon): > 100 µM

COc1cc(C2CC(=O)c3c(C)nn(-c4nc5ccccc5[nH]4)c3C2)cc(OC)c1OC (stereo not given)
GI50 (RPMI-8226 leukemia): > 100 µM
TGI (RPMI-8226 leukemia): > 100 µM
GI50 (HT29 colon): > 100 µM
TGI (HT29 colon): > 100 µM
GI50 (NCI-H522 lung): 2.64 µM
TGI (NCI-H522 lung): > 100 µM
GI50 (RXF 393 renal): 2.12 µM
TGI (RXF 393 renal): 7.8 µM
GI50 (M14 melanoma): > 100 µM
TGI (M14 melanoma): > 100 µM
GI50 (HCT-116 colon): 7.39 µM
TGI (HCT-116 colon): > 100 µM

CCOC(=O)C/C(N)=C(\C#N)C(=O)OCC
TGI (OVCAR-8 ovarian): > 100 µM
TGI (MALME-3M melanoma): > 100 µM
TGI (RPMI-8226 leukemia): > 100 µM
TGI (HT29 colon): > 100 µM
TGI (NCI-H522 lung): > 100 µM
TGI (ACHN renal): > 100 µM
TGI (RXF 393 renal): > 100 µM
TGI (M14 melanoma): > 100 µM
TGI (HCT-116 colon): > 100 µM

NC(=O)c1ccccc1NC(=O)C(=O)Nc1n[nH]c(N)n1
TGI (OVCAR-8 ovarian): > 100 µM
TGI (MALME-3M melanoma): > 100 µM
TGI (RPMI-8226 leukemia): > 100 µM
TGI (HT29 colon): > 100 µM
TGI (NCI-H522 lung): > 100 µM
TGI (ACHN renal): > 100 µM
TGI (RXF 393 renal): > 100 µM
TGI (M14 melanoma): > 100 µM
TGI (HCT-116 colon): > 100 µM

O=C(O)/C(=C/c1ccccc1[N+](=O)[O-])c1cccs1
TGI (OVCAR-8 ovarian): > 100 µM
TGI (RPMI-8226 leukemia): > 100 µM
TGI (HT29 colon): > 100 µM
TGI (NCI-H522 lung): > 100 µM
TGI (ACHN renal): > 100 µM
TGI (M14 melanoma): > 100 µM
TGI (HCT-116 colon): > 100 µM

O=C(Cc1nc2ccc(C(=O)c3ccccc3)cc2[nH]c1=O)C(=O)Nc1ccc(C(F)(F)F)cc1[N+](=O)[O-]
TGI (OVCAR-8 ovarian): > 100 µM
TGI (MALME-3M melanoma): > 100 µM
TGI (RPMI-8226 leukemia): > 100 µM
TGI (HT29 colon): > 100 µM
TGI (NCI-H522 lung): > 100 µM
TGI (ACHN renal): > 100 µM
TGI (M14 melanoma): > 100 µM
TGI (HCT-116 colon): > 100 µM

Cc1nn2c(=O)n(-c3cccc(-n4nnc5c(-c6ccccc6)c(C)nn5c4=O)c3C)nnc2c1-c1ccccc1
TGI (OVCAR-8 ovarian): > 100 µM
TGI (MALME-3M melanoma): 56 µM
TGI (RPMI-8226 leukemia): 96.4 µM
TGI (HT29 colon): > 100 µM
TGI (NCI-H522 lung): 33.2 µM
TGI (ACHN renal): 76.7 µM
TGI (RXF 393 renal): > 100 µM
TGI (M14 melanoma): 29.6 µM
TGI (HCT-116 colon): 30.4 µM

Cc1no[n+]([O-])c1/C=N/NS(=O)(=O)c1ccccc1
TGI (OVCAR-8 ovarian): > 100 µM
TGI (MALME-3M melanoma): > 100 µM
TGI (RPMI-8226 leukemia): > 100 µM
TGI (HT29 colon): > 100 µM
TGI (NCI-H522 lung): > 100 µM
TGI (RXF 393 renal): > 100 µM
TGI (M14 melanoma): > 100 µM
TGI (HCT-116 colon): > 100 µM

CC(=O)n1cc(CC(C)O)c(=O)[nH]c1=O (stereo not given)
TGI (OVCAR-8 ovarian): > 100 µM
TGI (RPMI-8226 leukemia): > 100 µM
TGI (HT29 colon): > 100 µM
TGI (NCI-H522 lung): > 100 µM
TGI (ACHN renal): > 100 µM
TGI (M14 melanoma): > 100 µM
TGI (HCT-116 colon): > 100 µM

COc1ccccc1NC(=O)CC(=O)n1nc(-c2ccccc2)c(N=Nc2ccccc2[N+](=O)[O-])c1-c1ccccc1
TGI (OVCAR-8 ovarian): > 100 µM
TGI (MALME-3M melanoma): > 100 µM
TGI (RPMI-8226 leukemia): > 100 µM
TGI (HT29 colon): > 100 µM
TGI (NCI-H522 lung): > 100 µM
TGI (ACHN renal): > 100 µM
TGI (RXF 393 renal): > 100 µM
TGI (M14 melanoma): > 100 µM
TGI (HCT-116 colon): > 100 µM

COC(=O)CSc1n[nH]c(-c2ccccc2)n1
TGI (OVCAR-8 ovarian): > 100 µM
TGI (MALME-3M melanoma): > 100 µM
TGI (RPMI-8226 leukemia): > 100 µM
TGI (HT29 colon): > 100 µM
TGI (NCI-H522 lung): > 100 µM
TGI (ACHN renal): > 100 µM
TGI (M14 melanoma): > 100 µM
TGI (HCT-116 colon): > 100 µM

CC(N)CN.CC(N)CN.[Cl-].[O]=[Os+2]=[O] (stereo not given)
GI50 (OVCAR-8 ovarian): 96.2 µM
TGI (OVCAR-8 ovarian): > 100 µM
GI50 (MALME-3M melanoma): > 100 µM
TGI (MALME-3M melanoma): > 100 µM
GI50 (RPMI-8226 leukemia): 40.3 µM
TGI (RPMI-8226 leukemia): > 100 µM
GI50 (NCI-H522 lung): 30.9 µM
TGI (NCI-H522 lung): > 100 µM
GI50 (RXF 393 renal): > 100 µM
TGI (RXF 393 renal): > 100 µM
GI50 (M14 melanoma): > 100 µM
TGI (M14 melanoma): > 100 µM
GI50 (HCT-116 colon): 36.5 µM
TGI (HCT-116 colon): > 100 µM

COc1ccc(/C=c2\sc3nnc(CCC(=O)Nc4cccc(C(F)(F)F)c4)n3c2=O)cc1
TGI (OVCAR-8 ovarian): > 100 µM
TGI (MALME-3M melanoma): > 100 µM
TGI (RPMI-8226 leukemia): > 95.5 µM
TGI (HT29 colon): > 100 µM
TGI (ACHN renal): > 100 µM
TGI (RXF 393 renal): 98.5 µM
TGI (M14 melanoma): > 100 µM
TGI (HCT-116 colon): > 100 µM

C=C(CS(=O)(=O)c1ccccc1)C(=O)OCC
TGI (OVCAR-8 ovarian): 22.4 µM
TGI (MALME-3M melanoma): 39.1 µM
TGI (HT29 colon): 23.3 µM
TGI (NCI-H522 lung): 12.9 µM
TGI (ACHN renal): 29.5 µM
TGI (RXF 393 renal): 24.4 µM
TGI (M14 melanoma): 24.2 µM
TGI (HCT-116 colon): 29.9 µM

O=c1c2cc(Br)ccc2[nH]c(=S)n1-c1ccccc1
TGI (OVCAR-8 ovarian): > 100 µM
TGI (MALME-3M melanoma): > 100 µM
TGI (RPMI-8226 leukemia): > 100 µM
TGI (HT29 colon): > 100 µM
TGI (ACHN renal): > 100 µM
TGI (M14 melanoma): > 100 µM
TGI (HCT-116 colon): > 100 µM

COc1ccc2oc(-c3cc4cc(OC)ccc4o3)cc2c1
TGI (OVCAR-8 ovarian): > 100 µM
TGI (MALME-3M melanoma): > 100 µM
TGI (RPMI-8226 leukemia): > 100 µM
TGI (NCI-H522 lung): > 100 µM
TGI (ACHN renal): > 100 µM
TGI (RXF 393 renal): > 100 µM
TGI (M14 melanoma): > 100 µM

CCOc1ccc(/C=N\N2C(=O)c3ccccc3C2=O)cc1
TGI (OVCAR-8 ovarian): > 100 µM
TGI (MALME-3M melanoma): > 100 µM
TGI (RPMI-8226 leukemia): > 100 µM
TGI (HT29 colon): > 100 µM
TGI (ACHN renal): > 100 µM
TGI (RXF 393 renal): > 100 µM
TGI (M14 melanoma): > 100 µM
TGI (HCT-116 colon): > 100 µM
